Assay results: patent US20260294913A1, “COMBINATION THERAPY OF DACOMITINIB AND NINTEDANIB FOR PREVENTION OR TREATMENT OF PULMONARY FIBROSIS” (KOREA INSTITUTE OF RADIOLOGICAL & MEDICAL SCIENCES, priority 2023, published 2026)

Test system: mice with radiation-induced pulmonary fibrosis
Test: Inhibitory effect on radiation-induced pulmonary fibrosis in mice (micro-CT, H&E and Masson's Trichrome staining)
Format: in vivo, C57BL/6 mice
Conditions: first dose 1 h prior to SBRT (90 Gy), two weeks after radiation, as compared to untreated group
Procedure: Seven-week-old male C57BL/6 mice were divided into groups receiving nintedanib, which is an FDA-approved pulmonary fibrosis inhibitor, dacomitinib, which is an EGFR TKI, and a combination thereof, and orally administered one hour prior to stereotactic body radiation therapy (SBRT) (90 Gy, 4 mm collimator). Two weeks after radiation, the degree of pulmonary fibrosis and the inhibitory effect on radiation-induced lung injury were observed.
The nintedanib group received 60 mg/kg daily, the dacomitinib group received 10 mg/kg daily, and the combination group received 60 mg/kg of nintedanib and 10 mg/kg of dacomitinib. All drugs were orally administered daily. In addition, to analyze the degree of inflammatory response and the degree of fibrosis, H&E staining and Masson's Trichrome staining were performed and the grade of pulmonary fibrosis and the degree of collagen deposition are graphically represented in FIG. 2.

SMILES: COc1cc2ncnc(Nc3ccc(F)c(Cl)c3)c2cc1NC(=O)/C=C/CN1CCCCC1 [dacomitinib, (E)-N-(4-((3-chloro-4-fluorophenyl)amino)-7-methoxyquinazolin-6-yl)-4-(piperidin-1-yl) but-2-enamide]
- degree of pulmonary fibrosis (dacomitinib alone, 10 mg/kg daily oral): reduced fibrosis

SMILES: COC(=O)c1ccc2c(c1)NC(=O)/C2=C(\Nc1ccc(N(C)C(=O)CN2CCN(C)CC2)cc1)c1ccccc1 [nintedanib, methyl (3Z)-3-{[(4-(methyl[(4-methylpiperazin-1-yl)acetyl]amino}phenyl)amino](phenyl)methylidene)-2-oxo-2,3-dihydro-1H-indole-6-carboxylate]
- degree of pulmonary fibrosis (nintedanib alone, 60 mg/kg daily oral): reduced fibrosis
